Results from ChEMBL document CHEMBL1148838, “Synthesis and antibacterial evaluation of a novel series of rifabutin-like spirorifamycins” (2007).
≈ marks a conversion by molar mass, not a printed value.

Key:
Format in all cases: functional
Staphylococcus aureus [1] = experiment: Antibacterial activity against intermediate rifamycin-resistant Staphylococcus aureus CB372 with rpoB Asp471Tyr mutation
Staphylococcus aureus [2] = experiment: Antibacterial activity against rifamycin-resistant Staphylococcus aureus CB370 with rpoB His481Tyr mutation
Staphylococcus aureus [3] = experiment: Antibacterial activity against rifamycin-sensitive Staphylococcus aureus CB190
Staphylococcus aureus [4] = experiment: Antibacterial activity against Staphylococcus aureus ATCC 6538 induced-septicemia in po dosed mouse; conditions: ATCC 6538, po
Staphylococcus aureus [5] = experiment: Antibacterial activity against Staphylococcus aureus ATCC 6538 induced-septicemia in sc dosed mouse; conditions: ATCC 6538, sc

Compound | MIC (Staphylococcus aureus [1]) [µg/mL] | MIC (Staphylococcus aureus [2]) [µg/mL] | MIC (Staphylococcus aureus [3]) [µg/mL] | ED50 (Staphylococcus aureus [4]) [mg/kg] | ED50 (Staphylococcus aureus [5]) [mg/kg]
CO[C@H]1/C=C/O[C@@]2(C)Oc3c(C)c(O)c4c(c3C2=O)C2=NC3(CCN(C(=O)OC(C)(C)C)C3)CNC2=C(NC(=O)/C(C)=C\C=C\[C@H](C)[C@H](O)[C@@H](C)[C@@H](O)[C@@H](C)[C@H](OC(C)=O)[C@@H]1C)C4=O (some centres undefined) | 7.81 (≈ 8.77 µM) | > 62.5 | 0.016 (≈ 0.018 µM) | – | –
CO[C@H]1/C=C/O[C@@]2(C)Oc3c(C)c(O)c4c(c3C2=O)C2=NC3(CCN(CC(C)C)CC3)NC2=C(NC(=O)/C(C)=C\C=C\[C@H](C)[C@H](O)[C@@H](C)[C@@H](O)[C@@H](C)[C@H](OC(C)=O)[C@@H]1C)C4=O [RIFABUTIN] | 15.6 (≈ 18.4 µM) | > 62.5 | 0.031 (≈ 0.0366 µM) | 0.6 | < 0.1
CO[C@H]1/C=C/O[C@@]2(C)Oc3c(C)c(O)c4c(c3C2=O)C2=NC3(CCN(C(=O)OC(C)(C)C)CC3)CNC2=C(NC(=O)/C(C)=C\C=C\[C@H](C)[C@H](O)[C@@H](C)[C@@H](O)[C@@H](C)[C@H](OC(C)=O)[C@@H]1C)C4=O | 7.81 (≈ 8.63 µM) | > 62.5 | 0.026 (≈ 0.0287 µM) | – | –
CO[C@H]1/C=C/O[C@@]2(C)Oc3c(C)c(O)c4c(c3C2=O)C2=NC3(CCN(C)C3)CNC2=C(NC(=O)/C(C)=C\C=C\[C@H](C)[C@H](O)[C@@H](C)[C@@H](O)[C@@H](C)[C@H](OC(C)=O)[C@@H]1C)C4=O (some centres undefined) | 0.98 (≈ 1.22 µM) | > 62.5 | 0.013 (≈ 0.0162 µM) | – | –
CO[C@H]1/C=C/O[C@@]2(C)Oc3c(C)c(O)c4c(c3C2=O)C2=NC3(CCN(Cc5cnc6ccccc6c5)CC3)CNC2=C(NC(=O)/C(C)=C\C=C\[C@H](C)[C@H](O)[C@@H](C)[C@@H](O)[C@@H](C)[C@H](OC(C)=O)[C@@H]1C)C4=O | 0.98 (≈ 1.04 µM) | 15.6 (≈ 16.5 µM) | 0.063 (≈ 0.0666 µM) | 5 | 0.6
CO[C@H]1/C=C/O[C@@]2(C)Oc3c(C)c(O)c4c(c3C2=O)C2=NC3(CCN(Cc5ccccc5)CC3)CNC2=C(NC(=O)/C(C)=C\C=C\[C@H](C)[C@H](O)[C@@H](C)[C@@H](O)[C@@H](C)[C@H](OC(C)=O)[C@@H]1C)C4=O | 1.95 (≈ 2.18 µM) | 32 (≈ 35.8 µM) | 0.003 (≈ 0.00335 µM) | – | –
C=CCN1CCC2(CC1)CNC1=C3NC(=O)/C(C)=C\C=C\[C@H](C)[C@H](O)[C@@H](C)[C@@H](O)[C@@H](C)[C@H](OC(C)=O)[C@H](C)[C@@H](OC)/C=C/O[C@@]4(C)Oc5c(C)c(O)c(c(c5C4=O)C1=N2)C3=O | 15.6 (≈ 18.5 µM) | > 62.5 | 0.006 (≈ 0.0071 µM) | – | –
CO[C@H]1/C=C/O[C@@]2(C)Oc3c(C)c(O)c4c(c3C2=O)C2=NC3(CCN(CC(C)C)C3)CNC2=C(NC(=O)/C(C)=C\C=C\[C@H](C)[C@H](O)[C@@H](C)[C@@H](O)[C@@H](C)[C@H](OC(C)=O)[C@@H]1C)C4=O (some centres undefined) | > 62.5 | 31.3 (≈ 37 µM) | 0.063 (≈ 0.0744 µM) | – | –
CO[C@H]1/C=C/O[C@@]2(C)Oc3c(C)c(O)c4c(c3C2=O)C2=NC3(CCN(C)CC3)CNC2=C(NC(=O)/C(C)=C\C=C\[C@H](C)[C@H](O)[C@@H](C)[C@@H](O)[C@@H](C)[C@H](OC(C)=O)[C@@H]1C)C4=O | 1.95 (≈ 2.38 µM) | > 62.5 | 0.016 (≈ 0.0195 µM) | > 10 | 0.3
CO[C@H]1/C=C/O[C@@]2(C)Oc3c(C)c(O)c4c(c3C2=O)C2=NC3(CCN(CC(C)C)CC3)CNC2=C(NC(=O)/C(C)=C\C=C\[C@H](C)[C@H](O)[C@@H](C)[C@@H](O)[C@@H](C)[C@H](OC(C)=O)[C@@H]1C)C4=O | 7.81 (≈ 9.07 µM) | > 62.5 | 0.063 (≈ 0.0732 µM) | < 0.1 | 0.6
CO[C@H]1/C=C/O[C@@]2(C)Oc3c(C)c(O)c4c(c3C2=O)C2=NC3(CCN(Cc5cnc6ccccc6c5)C3)CNC2=C(NC(=O)/C(C)=C\C=C\[C@H](C)[C@H](O)[C@@H](C)[C@@H](O)[C@@H](C)[C@H](OC(C)=O)[C@@H]1C)C4=O (some centres undefined) | 7.81 (≈ 8.38 µM) | > 62.5 | 0.063 (≈ 0.0676 µM) | – | –
CO[C@H]1/C=C/O[C@@]2(C)Oc3c(C)c(O)c4c(c3C2=O)C2=NC3(CCN(Cc5ccccc5)C3)CNC2=C(NC(=O)/C(C)=C\C=C\[C@H](C)[C@H](O)[C@@H](C)[C@@H](O)[C@@H](C)[C@H](OC(C)=O)[C@@H]1C)C4=O (some centres undefined) | 3.91 (≈ 4.44 µM) | > 62.5 | 0.031 (≈ 0.0352 µM) | – | –
